In patent US20260295119A1, “TARGET FOR COMBATTING THE FOREIGN BODY RESPONSE TO IMPLANTABLE BIOMATERIALS” (The Regents of the University of Colorado, a body corporate, priority 2023, published 2026):
One block for each compound: values may come before it. No end group written: not given here.

Assays:
RAW 264.7 macrophages [1] = assay: IL-6 production by PAM3CSK4-stimulated RAW 264.7 macrophages; format: cell-based, mouse
Description: The ability of free MyD88 inhibitor T6167923 (Br) or T6167923 (SH) in solution to attenuate pro-inflammatory cytokine production by macrophages treated with PAM3CSK4 was assessed (FIG. 12A). When macrophages were treated with PAM3CSK4, IL-6 production increased (p<0.01) by 3-fold. […] Comparing the two inhibitors at 100 μM, T6167923 (Br) had attenuated IL-6 production by 89%, while T6167923 (SH) had attenuated IL-6 product by 58%.
Inhibitor Preparation and Synthesis: 200 μM stock solutions of T6167923 (Br) and T6167923 (SH) were prepared by first dissolving the inhibitors in 100 μL anhydrous DMSO, then adding dropwise to 9.9 mL culture medium and sterile filtering. The stock solution was then serially diluted in additional cell culture medium to make treatment concentrations. The inhibitor-PEG-peptide molecule was synthesized as follows. Bromoacetamido-dPEG12-TFP ester (36 mg) was added to 400 μL anhydrous DMSO and stirred in an amber vial to dissolve. T6167923 (SH) (17.65 mg) was dissolved in 100 μL anhydrous DMSO before being added dropwise to the amber vial. After 20 minutes of stirring, 1.5 mL of 50 mM sodium bicarbonate buffer, pH 8.4 was slowly added to the vial and the reaction was continued for an additional 20 minutes. Triglycine (8.6 mg) was combined with 2 mL of 50 mM sodium bicarbonate buffer, pH 8.4, then added dropwise to the reaction mixture in the amber vial with stirring. The reaction progressed overnight, then the product was purified by dialysis with 100-500 MWCO tubing against DI water. The reaction was monitored by consumption of sulfhydryls and primary amines. The product was sterile filtered and then lyophilized.
Cell Culture: RAW 264.7 cells were cultured in DMEM with 10% FBS and 1% penicillin/streptomycin at 37° C. and 5% CO2. Depending on the experiment, cells were seeded in tissue culture polystyrene (TCPS) well plates ([…]) or on hydrogels at 625,000 cells/cm^2 and allowed to adhere overnight. For transwell experiments, a transwell with a hydrogel was inserted into the well after the cells were allowed to adhere. For the (T6167923 (Br), T6167923 (SH)), and inhibitor-PEG-peptide studies, cells were treated with inhibitor for a specified period of time. To do this, medium was aspirated from the well and replaced with inhibitor-containing DMEM. Control conditions included cells only and cells plus 1% anhydrous DMSO by volume. After a specified period of culture time, PAM3CSK4 was added at 50 ng/ml and the cells were cultured for a prescribed period of time. Medium was collected and flash frozen for ELISA. […]
(§1) Protein Assays: Cell culture medium was thawed on ice. IL-6 in the culture media was quantified using an ELISA. MMP-12 production in culture media was measured per kit instructions. […]

human MMP-12 = molecular target: T1, human MMP-12 (Homo sapiens, UniProt P39900); assay: Cleavage of hydrogel-tethered tryptophan peptides by MMP-12; format: biochemical; details: role: substrate; 5 nM activated MMP-12, 285 nm; p<0.001
T1 construct: purchased R&D Systems
T1 sequence (P39900 106-470): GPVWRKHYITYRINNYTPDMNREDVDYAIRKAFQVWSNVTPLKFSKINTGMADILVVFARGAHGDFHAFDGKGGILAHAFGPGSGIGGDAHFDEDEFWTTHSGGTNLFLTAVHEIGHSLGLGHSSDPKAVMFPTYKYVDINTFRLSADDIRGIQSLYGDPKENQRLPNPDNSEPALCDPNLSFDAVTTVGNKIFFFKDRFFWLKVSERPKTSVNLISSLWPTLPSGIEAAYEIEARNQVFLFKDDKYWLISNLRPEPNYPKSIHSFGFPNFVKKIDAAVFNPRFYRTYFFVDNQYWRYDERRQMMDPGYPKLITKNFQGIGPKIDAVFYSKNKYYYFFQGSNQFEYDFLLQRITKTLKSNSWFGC
Description: To test the cleavability of the chosen peptides by MMP-12, the sequences were modified with tryptophan residues, tethered to PEG hydrogels at 5 μM concentration, and exposed to 5 nM MMP-12 in buffer. First, the maleimide of acrylate-PEG-maleimide (MW 3,400 g/mol) was reacted with the cysteine residue contained in the peptide sequence to create a PEG-conjugated peptide with tryptophan at one end and an acrylate group at the other. This product was then combined with PEGDA monomer and photoinitiator in PBS and photopolymerized, yielding a gel (FIG. 14C). The release of the tryptophan-containing cleaved portion of the sequence was monitored by measuring buffer absorbance at 285 nm over time (FIG. 14D).
For the release studies, acrylate-PEG-maleimide (6.8 mg) was reacted with peptide (GWGPLGLEEACG [SEQ ID NO. 2] or GWGPLGLARCG [SEQ ID NO. 1], 5 mM) in 500 μL dry DMF for 30 minutes with stirring. PEGDA (100 mg) was then added to the reaction mixture and vortexed to combine. Irgacure 2959 was added as photoinitiator in dry DMF (6 mg/mL). This precursor solution was gelled between glass slides with a 1 mm spacer under UV light for 45 minutes. The resulting 20 wt % hydrogel was soaked in ultrapure water to rinse away DMF followed by additional rinses in TCNB assay buffer (50 mM Tris, 10 mM CaCl2, 150 mM NaCl, 0.05% (w/v) Brij-35, pH 7.5).
Tryptophan Release: Peptide-conjugated hydrogels swollen in TCNB assay buffer were punched to 5 mm diameter and placed in wells of a 96-well clear, flat bottom well plate (n=4 gels for each peptide). Human MMP-12 was reconstituted in 10 mM MES, 0.1 M NaCl, 100 μM CaCl2, 0.1% (w/v) CHAPS, 1 μM ZnSO4, 0.1% (w/v) PEG, pH 6.0 buffer to 0.25 mg/mL. It was then diluted to 50 μg/mL with TCNB assay buffer and activated by adding 100 mM APMA in DMSO to 1 mM final concentration and incubating at 37° C. for 24 hours. […] At each time point, 2 μL supernatant was removed from each well and spectrophotometrically measured on the Nanodrop at 285 nm. […]

RAW 264.7 macrophages [2] = assay: MMP-12 secretion by RAW 264.7 macrophages (ELISA); format: cell-based, mouse; details: PAM3CSK4 50 ng/ml, 8 h
Description: RAW 264.7 macrophages were cultured in serum-free (1% ITS) media (FIG. 14A) or serum-containing medium (10% FBS) (FIG. 14(B)) and treated or not with PAM3CSK4 (50 ng/ml), then their secretion of MMP-12 over the 8-hour period was evaluated by ELISA. Macrophages with (p<0.01) and without (p<0.001) PAM3CSK4 stimulation secreted MMP-12 when cultured in the serum-free media, with average levels of 245 and 556 μg/mL, respectively. In serum-containing media, the production of MMP-12 was on average 178 μg MMP-12/mL (p<0.01 relative to blank) in unstimulated cells. […] Unstimulated cells in the same media secreted MMP-12. MMP-12 production by the cells was higher in ITS media than in FBS media.
Cell Culture: RAW 264.7 cells were cultured in DMEM with 10% FBS and 1% penicillin/streptomycin at 37° C. and 5% CO2. Depending on the experiment, cells were seeded in tissue culture polystyrene (TCPS) well plates ([…]) or on hydrogels at 625,000 cells/cm^2 and allowed to adhere overnight. For transwell experiments, a transwell with a hydrogel was inserted into the well after the cells were allowed to adhere. […]
as §1

Compound: C[C@H](NC(=O)N1CCN(S(=O)(=O)c2cccc(Br)c2)CC1)c1cccs1 [T6167923 (Br)]
attenuation of IL-6 production (RAW 264.7 macrophages [1]; 100 μM inhibitor, PAM3CSK4 50 ng/ml): 89%
dose dependence of IL-6 attenuation (RAW 264.7 macrophages [1]; PAM3CSK4 50 ng/ml): a dose-dependent response was observed
inhibitor concentrations at which IL-6 was significantly lower than untreated PAM3CSK4-stimulated cells (RAW 264.7 macrophages [1]; PAM3CSK4 50 ng/ml): 50 to 200 µM

cleavage by MMP-12 (tryptophan cumulative release) (human MMP-12): cleaved by the MMP-12
rate of cleavage by MMP-12 relative to the longer peptide (SEQ ID NO. 2) (human MMP-12): slightly faster rate
Compound: GWGPLGLARCG [SEQ ID NO. 1]: MMP-12 cleavable peptide, tryptophan modified, tethered to PEG hydrogel (also: tethered to PEG hydrogel)

cleavage by MMP-12 (tryptophan cumulative release) (human MMP-12): cleaved by the MMP-12
Compound: GWGPLGLEEACG [SEQ ID NO. 2]: MMP-12 cleavable peptide, tryptophan modified, tethered to PEG hydrogel (also: tethered to PEG hydrogel)

Compound: PAM3CSK4
increase in IL-6 production (RAW 264.7 macrophages [1]; PAM3CSK4 treatment vs unstimulated, no inhibitor, p<0.01): 3 -fold
MMP-12 levels compared to blank (no cells) (RAW 264.7 macrophages [2]; serum-containing medium (10% FBS)): not statistically different to the blank
MMP-12 secretion (RAW 264.7 macrophages [2]; serum-free (1% ITS) media, p<0.01 vs blank): 245 µg/mL
